How the values were obtained:
[1] = molecular target: T1, Full-length inactive AKT1 (Homo sapiens, UniProt P31749); assay: Inactive Akt HTRF Assay (Akt1)
Protocol: AKT1 activity was assayed using CisBio KinEASE™ HTRF Assay technology. This technology utilizes a proprietary biotinylated peptide substrate (STKS3), streptavidin labeled XL665 antibody, and STK antibody-Eu^3+-cryptate. AKT1 activation was achieved by the addition of the activating kinases PDK1 and MAPKAPK2, lipid vesicles, and ATP. The extent of STKS3 biotinylated peptide phosphorylation was determined using a phospho-STK antibody-Eu^3+-cryptate and streptavidin labeled XL665 antibody. XL665 was stimulated by Eu^3+-cryptate resulting in a TR-FRET signal proportional to the SKS3 phosphorylation level.

BT474 = assay: MTS Assay, cell proliferation, BT474; type: cell-based; conditions: Homo sapiens, BT-474, read-out: Average of [CELL], IC50, MTS (72 hours; 10 Percent; FBS) BT474
Protocol: (§1) Cell proliferation analysis. Cell survival was determined by the MTS assay. Briefly, cells were plated in a 96-well plate at 2,000-10,000 cells per well, cultured for 24 hours in complete growth medium, and then treated with various drugs and drug combinations for 72 hours. MTS was added and incubated for 4 hour, followed by assessment of cell viability using the microplate reader at 570 nm. Data were normalized to untreated controls and analyzed with Microsoft Excel.

AN3CA = assay: MTS Assay, cell proliferation, AN3CA; type: cell-based; conditions: Homo sapiens, AN3-CA, read-out: Average of [CELL], IC50, MTS (72 hours; 10 Percent; FBS) AN3CA
Protocol: as §1

[2] = molecular target: T1, Full-length inactive AKT1; assay: Inactive Akt Alpha Screen Assay; type: biochemical; conditions: values not marked with "*"; read-out: Akt1 IC50, (AlphaScreen)
Procedure, shortened: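 AlphaScreen read-out (excitation 640 nm, emission 570 nm) after 90 min incubation at room temperature in the dark. Signal comes from crosstide phosphorylation by AKT1, which was activated by added PDK1, MAPKAPK2, ATP and lipid vesicles, captured via phospho-AKT substrate antibody and streptavidin beads.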

LnCap = assay: MTS Assay, cell proliferation, LnCap; type: cell-based; conditions: Homo sapiens, read-out: Average of [CELL], IC50, MTS (72 hours; 10 Percent; FBS) LnCap
Protocol: as §1

A2780 = assay: MTS Assay, cell proliferation, A2780; type: cell-based; conditions: Homo sapiens, read-out: Average of [CELL], IC50, MTS (72 hours; 10 Percent; FBS) A2780
Protocol: as §1

Zr75-1 = assay: MTS Assay, cell proliferation, Zr75-1; type: cell-based; conditions: Homo sapiens, ZR-75-1, read-out: Average of [CELL], IC50, MTS (72 hours; 10 Percent; FBS) Zr75-1
Protocol: as §1

IGROV = assay: MTS Assay, cell proliferation, IGROV; type: cell-based; conditions: read-out: Average of [CELL], IC50, MTS (72 hours; 10 Percent; FBS) IGROV
Protocol: as §1

T1 sequence (P31749 whole entry): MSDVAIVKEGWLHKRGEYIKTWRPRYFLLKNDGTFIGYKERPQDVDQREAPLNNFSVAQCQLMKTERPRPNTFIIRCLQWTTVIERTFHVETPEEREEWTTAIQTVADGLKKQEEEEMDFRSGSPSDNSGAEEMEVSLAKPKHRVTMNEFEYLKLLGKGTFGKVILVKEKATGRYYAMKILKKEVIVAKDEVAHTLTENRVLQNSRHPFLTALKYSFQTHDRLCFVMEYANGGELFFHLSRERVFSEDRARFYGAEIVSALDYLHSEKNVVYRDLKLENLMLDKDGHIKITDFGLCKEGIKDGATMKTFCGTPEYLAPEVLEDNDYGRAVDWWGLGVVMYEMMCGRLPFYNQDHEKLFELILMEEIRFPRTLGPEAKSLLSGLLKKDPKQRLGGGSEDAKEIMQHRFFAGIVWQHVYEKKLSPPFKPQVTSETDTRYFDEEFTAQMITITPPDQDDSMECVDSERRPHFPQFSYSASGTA

SMILES	IC50 [1] [µM]	IC50 (BT474) [µM]	IC50 (AN3CA) [µM]	IC50 [2] [µM]	IC50 (LnCap) [µM]	IC50 (A2780) [µM]	IC50 (Zr75-1) [µM]	IC50 (IGROV) [µM]
Nc1ncccc1-c1nc2cc(Br)cnc2n1-c1ccc(CNS(=O)(=O)c2ccc3ccccc3c2)cc1 [Example 157, N-{4-[2-(2-aminopyridin-3-yl)-6-bromo-3H-imidazo[4,5-b]pyridin-3-yl]benzyl}naphthalene-2-sulfonamide]	8.1							
CC(=O)Nc1cccc(-c2ccc3nc(-c4cccnc4N)n(-c4ccc(CC(=O)Nc5ccccc5)cc4)c3n2)c1 [Example 261, 2-(4-(5-(3-acetamidophenyl)-2-(2-aminopyridin-3-yl)-3H-imidazo[4,5-b]pyridin-3-yl)phenyl)-N-phenylacetamide]		1.3	2.2	0.013	1.9	3.3		
Nc1ncccc1-c1nc2cccnc2n1-c1ccc(C(=O)NCc2ccccc2)cc1 [Example 178, 4-[2-(2-aminopyridin-3-yl)-3H-imidazo[4,5-b]pyridin-3-yl]-N-benzylbenzamide]	7.1							
CC(=O)Nc1cccc(-c2ccc3nc(-c4cccnc4N)n(-c4ccc(CNC(=O)c5ccccc5)cc4)c3n2)c1 [Example 287, N-(4-(5-(3-acetamidophenyl)-2-(2-aminopyridin-3-yl)-3H-imidazo[4,5-b]pyridin-3-yl)benzyl)benzamide]		1.2	1.5	0.014	2	1.6		
CC(=O)Nc1ccc(-c2ccc3nc(-c4cccnc4N)n(-c4ccc(CNC(=O)c5ccc(C)c(F)c5)cc4)c3n2)cc1 [Example 292, N-(4-(5-(4-acetamidophenyl)-2-(2-aminopyridin-3-yl)-3H-imidazo[4,5-b]pyridin-3-yl)benzyl)-3-fluoro-4-methylbenzamide]		0.94	2.3	0.096	0.73	7.4		
Nc1ncccc1-c1nc2cc(-c3ccccc3Br)cnc2n1-c1ccc(CNC(=O)c2ccccc2)cc1 [Example 136, N-{4-[2-(2-aminopyridin-3-yl)-6-(2-bromophenyl)-3H-imidazo[4,5-b]pyridin-3-yl]benzyl}benzamide]	7.1							
Cc1ccc(-c2cnc3c(c2)nc(-c2cccnc2N)n3-c2ccc(CNC(=O)c3ccccc3)cc2)cc1 [Example 144, N-{4-[2-(2-aminopyridin-3-yl)-6-(4-methylphenyl)-3H-imidazo[4,5-b]pyridin-3-yl]benzyl}benzamide]	4.5							
Nc1ncccc1-c1nc2ccc(-c3cccc(CO)c3)nc2n1-c1ccc(CNC(=O)c2cccc(F)c2)cc1 [Example 308, N-(4-(2-(2-aminopyridin-3-yl)-5-(3-(hydroxymethyl)phenyl)-3H-imidazo[4,5-b]pyridin-3-yl)benzyl)-3-fluorobenzamide]		1.8	2.5	0.021	2.6	2.3	4.3	
CC(C(=O)NCc1ccc(-n2c(-c3cccnc3N)nc3cccnc32)cc1)c1ccccc1 (centres unmarked) [Example 51, N-{4-[2-(2-aminopyridin-3-yl)-3H-imidazo[4,5-b]pyridin-3-yl]benzyl}-2-phenylpropanamide]	82.8							
Nc1ncccc1-c1nc2cc(-c3ccc(F)cc3)cnc2n1-c1ccc(CNC(=O)c2ccccc2)cc1 [Example 141, N-{4-[2-(2-aminopyridin-3-yl)-6-(4-fluorophenyl)-3H-imidazo[4,5-b]pyridin-3-yl]benzyl}benzamide]	7.8							
Nc1ncccc1-c1nc2ccc(-c3cn[nH]c3)nc2n1-c1ccc(CNC(=O)c2cccc(F)c2)cc1 [Example 305, N-(4-(2-(2-aminopyridin-3-yl)-5-(1H-pyrazol-4-yl)-3H-imidazo[4,5-b]pyridin-3-yl)benzyl)-3-fluorobenzamide]		4.2	12	0.012	13	6.8	8.2	
CC(=O)Nc1cccc(-c2ccc3nc(-c4cccnc4N)n(-c4ccc(CC(=O)Nc5ccc6nc(C)ccc6c5)cc4)c3n2)c1 [Example 290, 2-(4-(5-(3-acetamidophenyl)-2-(2-amino-pyridin-3-yl)-3H-imidazo[4,5-b]pyridin-3-yl)phenyl)-N-(2-methylquinolin-6-yl)acetamide]		0.62	1.1	0.012	2.1	3.8		
Nc1ncccc1-c1nc2ccc(-c3ccoc3)nc2n1-c1ccc(CNC(=O)c2cccc(F)c2)cc1 [Example 307, N-(4-(2-(2-aminopyridin-3-yl)-5-(furan-3-yl)-3H-imidazo[4,5-b]pyridin-3-yl)benzyl)-3-fluorobenzamide]		3.6	6.3	0.035	4.9	2.9	9.1	
Nc1ncccc1-c1nc2ccc(-c3cccnc3)nc2n1-c1ccc(CNC(=O)c2cccc(F)c2)cc1 [Example 333, N-(4-(2-(2-aminopyridin-3-yl)-5-(pyridin-3-yl)-3H-imidazo[4,5-b]pyridin-3-yl)benzyl)-3-fluorobenzamide]		6.1	12	0.1	5.7	13		
CC(=O)Nc1cccc(-c2ccc3nc(-c4cccnc4N)n(-c4ccc(CC(=O)Nc5cccc(F)c5)cc4)c3n2)c1 [Example 294, 2-(4-(5-(3-acetamidophenyl)-2-(2-aminopyridin-3-yl)-3H-imidazo[4,5-b]pyridin-3-yl)phenyl)-N-(3-fluorophenyl)acetamide]		1.1	1.7	0.016	0.95	3.3		
CC(=O)Nc1cccc(NC(=O)Cc2ccc(-n3c(-c4cccnc4N)nc4ccc(-c5cccc(NC(C)=O)c5)nc43)cc2)c1 [Example 289, N-(3-acetamidophenyl)-2-(4-(5-(3-acetamidophenyl)-2-(2-aminopyridin-3-yl)-3H-imidazo[4,5-b]pyridin-3-yl)phenyl)acetamide]		3.2	12	0.0063	17	10		
CCCCNC(=O)Cc1ccc(-n2c(-c3cccnc3N)nc3ccc(-c4cccc(NC(C)=O)c4)nc32)cc1 [Example 297, 2-(4-(5-(3-acetamidophenyl)-2-(2-aminopyridin-3-yl)-3H-imidazo[4,5-b]pyridin-3-yl)phenyl)-N-butylacetamide]		3.6	6.5	0.035	3	15		
Nc1ncccc1-c1nc2ccc(-c3ccccc3)nc2n1-c1ccc(C2(N)CCC2)cc1 [Example 351, 3-(3-(4-(1-aminocyclobutyl)phenyl)-5-phenyl-3H-imidazo[4,5-b]pyridin-2-yl)pyridin-2-amine]		1.3	0.62		2.1	0.72	4.2	1.7
CC(=O)Nc1cccc(-c2ccc3nc(-c4cccnc4N)n(-c4ccc(CNS(=O)(=O)c5ccccc5)cc4)c3n2)c1 [Example 324, N-(3-(2-(2-aminopyridin-3-yl)-3-(4-(phenylsulfonamidomethyl)phenyl)-3H-imidazo[4,5-b]pyridin-5-yl)phenyl)acetamide]		2.5	5	0.014	4.2	6.3	3.6	
CCCCNC(=O)Cc1ccc(-n2c(-c3cccnc3N)nc3cccnc32)cc1 [Example 132, 2-{4-[2-(2-aminopyridin-3-yl)-3H-imidazo[4,5-b]pyridin-3-yl]phenyl}-N-butylacetamide]	6.84							
Nc1ncccc1-c1nc2cccnc2n1-c1ccc(CC(=O)Nc2ccc(Cl)cn2)cc1 [Example 117, 2-{4-[2-(2-aminopyridin-3-yl)-3H-imidazo[4,5-b]pyridin-3-yl]phenyl}-N-(5-chloropyridin-2-yl)acetamide]	3.96							
CC(=O)Nc1cccc(-c2ccc3nc(-c4cccnc4N)n(-c4ccc(CC(=O)NC(C)C)cc4)c3n2)c1 [Example 296, 2-(4-(5-(3-acetamidophenyl)-2-(2-aminopyridin-3-yl)-3H-imidazo[4,5-b]pyridin-3-yl)phenyl)-N-isopropylacetamide]		6.9	12	0.095	3.9	33		
Nc1ncccc1-c1nc2cccnc2n1-c1ccc(-n2cncn2)cc1 [Example 31]	22.1							
Cc1cnc2c(c1)nc(-c1cccnc1N)n2-c1ccc(CC(=O)Nc2ccc3ncccc3c2)cc1 [Example 295, 2-(4-(2-(2-aminopyridin-3-yl)-6-methyl-3H-imidazo[4,5-b]pyridin-3-yl)phenyl)-N-(quinolin-6-yl)acetamide]		5	3.3	0.076	1.8	3.8		

Reference: patent US8501770B2 (ArQule, Inc., priority 2009, dated 2013)
